Assay results taken from patent US5026729A, “Lipoxygenase inhibiting compounds” (Abbott Laboratories, priority 1989, dated 1991).
pIC50: −log10 of the molar value.

Tests used:
5-Lipoxygenase = molecular target: T1, 5-Lipoxygenase (Homo sapiens, UniProt P09917); test: 5-Lipoxygenase inhibitory activity in vitro; assay type: biochemical
T1 sequence (P09917 1-674): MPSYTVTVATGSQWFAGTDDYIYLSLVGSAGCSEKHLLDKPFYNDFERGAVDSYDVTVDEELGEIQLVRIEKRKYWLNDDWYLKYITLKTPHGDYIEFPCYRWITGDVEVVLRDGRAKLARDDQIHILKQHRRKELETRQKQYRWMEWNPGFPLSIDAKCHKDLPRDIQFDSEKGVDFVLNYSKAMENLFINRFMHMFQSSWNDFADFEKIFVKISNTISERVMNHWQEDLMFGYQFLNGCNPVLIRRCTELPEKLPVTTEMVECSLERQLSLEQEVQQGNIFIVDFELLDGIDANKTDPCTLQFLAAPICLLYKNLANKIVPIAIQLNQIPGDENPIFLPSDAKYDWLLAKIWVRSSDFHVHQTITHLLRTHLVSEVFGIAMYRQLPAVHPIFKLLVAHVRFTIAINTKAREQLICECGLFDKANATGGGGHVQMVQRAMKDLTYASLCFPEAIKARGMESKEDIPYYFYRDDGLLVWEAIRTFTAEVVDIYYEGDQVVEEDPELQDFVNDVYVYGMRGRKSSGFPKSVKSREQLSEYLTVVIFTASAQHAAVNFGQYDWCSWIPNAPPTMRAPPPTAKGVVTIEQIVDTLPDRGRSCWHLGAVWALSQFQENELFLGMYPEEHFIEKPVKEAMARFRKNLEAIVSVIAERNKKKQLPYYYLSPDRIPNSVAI

[1] = Determination of plasma half-life after intravenous injection in rats; assay type: in vivo; settings: 1.7 mL/kg solution via jugular cannula, HPLC, elimination phase; for half-life: rat, plasma, read-out: Plasma Halflife (converted)
Protocol: Rats were injected intravenously with a 1.7 mL/kg solution of test compound through a jugular cannula. Multiple blood samples were collected from the lateral tail vein using heparinized capillary tubes. Plasma was obtained by centrifugation and precipitation of proteins by 2 volumes of methanol was followed by centrifugation at 12000×G for 10 min. The supernatant was analyzed by HPLC using a C18 Adsorbosphere 7μm column and eluted with a mobile phase of varying amounts of acetonitrile and aqueous 8mM triethylamine acetate and 10mM acetohydroxamic acid with a flow rate of about 1mL/min and detection by UV spectroscopy. The quantitation of compounds was calculated using external standards. The halflife of a test compound was determined from the elimination phase of a graph of the log of the plasma concentration versus time.

Compound: Cc1cc(C(C)N(O)C(N)=O)ccc1OCc1ccccc1 (stereo not drawn) [A]
- pIC50 (5-Lipoxygenase): 7.00
- half-life [1]: 162 min

Compound: Cc1cc(OCc2ccccc2)ccc1C(C)N(O)C(N)=O (stereo not drawn) [B]
- pIC50 (5-Lipoxygenase): 6.40
- half-life [1]: 36 min

Compound: CC(=O)N(O)C(C)c1ccc(OCc2ccc(F)cc2)cc1 (stereo not drawn) [C]
- pIC50 (5-Lipoxygenase): 6.30
- half-life [1]: 336 min

Compound: CC(c1ccc(OCc2ccc(F)cc2)cc1)N(O)C(N)=O (stereo not drawn) [D]
- pIC50 (5-Lipoxygenase): 6.40
- Plasma Halflife [1]: biphasic

Compound: CC(=O)N(O)C(C)c1ccc(OCc2ccc(Cl)cc2)cc1 (stereo not drawn) [E]
- inhibition at 0.78 µM (5-Lipoxygenase; 0.78 μM, read-out: 5-Lipoxygenase Inhibitory Activity (percent inhibition)): 91%
- half-life [1]: 84 min

Compound: Cc1cc(C(C)N(O)C(N)=O)ccc1OC(C)c1ccccc1 (stereo not drawn) [Example 3, N-hydroxy-N-[1-(4-(1-phenylethoxy)-3-methylphenyl)ethyl]urea]
- pIC50 (5-Lipoxygenase): 6.70
- half-life [1]: 318 min

Compound: Cc1cc(OC(C)c2ccccc2)ccc1C(C)N(O)C(N)=O (stereo not drawn) [Example 4, N-hydroxy-N-[1-(4-(1-phenylethoxy)-2-methylphenyl)ethyl]urea]
- pIC50 (5-Lipoxygenase): 7.30
- half-life [1]: 72 min

Compound: CC(=O)N(O)C(C)c1ccc(OC(C)c2ccc(F)cc2)cc1 (stereo not drawn) [Example 31, N-Hydroxy-N-(1-(4-(1-(4-fluorophenyl)ethoxy)-phenyl)ethyl]acetamide]
- pIC50 (5-Lipoxygenase): 6.30
- half-life [1]: 744 min

Compound: CC(Oc1ccc(C(C)N(O)C(N)=O)cc1)c1ccc(F)cc1 (stereo not drawn) [Example 32]
- pIC50 (5-Lipoxygenase): 6.52
- half-life [1]: 432 min

Compound: CC(=O)N(O)C(C)c1ccc(OC(C)c2ccc(Cl)cc2)cc1 (stereo not drawn) [Example 33]
- pIC50 (5-Lipoxygenase): 6.22
- half-life [1]: 342 min

Compound: CC(Oc1ccc(C(C)N(O)C(N)=O)cc1)c1ccc(Cl)cc1 (stereo not drawn) [Example 34, N-hydroxy-N-[1-(4-(1-(4-chlorophenyl)ethoxy)-phenyl)ethyl]urea]
- pIC50 (5-Lipoxygenase): 6.70
- half-life [1]: 468 min

Compound: CC(c1ccc(OCc2ccc(Cl)cc2)cc1)N(O)C(N)=O (stereo not drawn) [F]
- inhibition at 0.39 µM (5-Lipoxygenase; 0.39 μM, read-out: 5-Lipoxygenase Inhibitory Activity (percent inhibition)): 72%
- half-life [1]: 276 min
